The record followed here is US12679807B2 (MERCK SHARP & DOHME LLC, priority 2020, dated 2026).

The assay deals with T1, GCS enzyme contained within Golgi preparations isolated from human A375 malignant melanoma skin cells (Homo sapiens, UniProt Q16739).
T1 construct: endogenous levels of GCS enzyme contained within Golgi preparations isolated from human A375 malignant melanoma skin cells; endogenous in cells; host or cells: A375 human malignant melanoma cells (crude Golgi preparation)
T1 sequence (Q16739 1-394): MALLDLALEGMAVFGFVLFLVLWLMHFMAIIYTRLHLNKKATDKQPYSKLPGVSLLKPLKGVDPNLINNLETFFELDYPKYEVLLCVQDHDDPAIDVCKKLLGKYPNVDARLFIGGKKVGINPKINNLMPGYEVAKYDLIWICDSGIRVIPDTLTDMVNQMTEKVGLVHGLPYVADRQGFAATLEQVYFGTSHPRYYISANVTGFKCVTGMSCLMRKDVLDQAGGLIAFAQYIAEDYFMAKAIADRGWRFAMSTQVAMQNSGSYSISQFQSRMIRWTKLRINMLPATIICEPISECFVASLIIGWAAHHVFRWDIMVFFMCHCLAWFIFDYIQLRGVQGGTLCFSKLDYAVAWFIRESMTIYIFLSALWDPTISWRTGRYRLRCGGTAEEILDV
Briefly: UDP-Glo glucosylceramide synthase biochemical assay. The conditions noted are these: crude Golgi preparation from A375 cells; C6 ceramide and UDP-glucose substrates; 20 h incubation at room temperature; UDP detected by luminescence. The gist of the method:
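Endogenous enzyme in A375 Golgi preparations (1.5 μg total protein) was preincubated 30 min with compound, then reacted 20 h at room temperature with UDP-glucose and ceramide.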

Broadly, the EC50 is the concentration that produces a half-maximal response. A higher EC50 goes with a need for much substance. As for `COc1ccc2ncc(F)c(C(=O)Nc3cccc4c3C(=O)N(CC3CC3)C4)c2n1` [Compound 135, N-(2-(cyclopropylmethyl)-3-oxoisoindolin-4-yl)-3-fluoro-6-methoxy-1,5-naphthyridine-4-carboxamide], the EC50 was 0.064 µM.

In turn, `O=C(Nc1cccc2c1C(=O)N(C(C1CC1)C1CC1)C2)c1cccc2c1OCC2` [Compound 145, N-(2-(dicyclopropylmethyl)-3-oxoisoindolin-4-yl)-2,3-dihydrobenzofuran-7-carboxamide] came in with a concentration for a half-maximal effect (EC50) of 0.26 µM. With `CC(C)(O)[C@@H](C1CC1)N1Cc2cccc(NC(=O)c3cccn4nccc34)c2C1=O` [Compound 156, (R)-N-(2-(1-cyclopropyl-2-hydroxy-2-methylpropyl)-3-oxoisoindolin-4-yl)pyrazolo[1,5-a]pyridine-4-carboxamide] the figure was 0.00097 µM. With `Cn1cc(-c2ccc(-c3ccnc4c3C(=O)N([C@H](C3CC3)C(C)(C)O)C4)cc2)cn1` [Compound 34, (R)-6-(1-cyclopropyl-2-hydroxy-2-methylpropyl)-4-(4-(1-methyl-1H-pyrazol-4-yl)phenyl)-6,7-dihydro-5H-pyrrolo[3,4-b]pyridin-5-one] the figure was 0.048 µM; with `Cc1cc(-c2cccc3c2C(=O)N(C(C2CC2)C(C)(C)O)C3)cc(C)n1` (racemic) [Compound 20, (R and S)-2-(1-cyclopropyl-2-hydroxy-2-methylpropyl)-7-(2,6-dimethylpyridin-4-yl)isoindolin-1-one], 0.067 µM.

In turn, `COc1ncc(Cl)c(C(=O)Nc2cccc3c2C(=O)N(C(C2CC2)C(C)(C)O)C3)c1C` (single isomer, unassigned) [Compound 154, (R or S)-5-Chloro-N-(2-(1-cyclopropyl-2-hydroxy-2-methylpropyl)-3-oxoisoindolin-4-yl)-2-methoxy-3-methylisonicotinamide] had an EC50 of 0.0001 µM. For `CCOc1ccccc1C(=O)Nc1cccc2c1C(=O)N(C(C1CC1)C1CC1)C2` [Compound 98, N-(2-(Dicyclopropylmethyl)-3-oxoisoindolin-4-yl)-2-ethoxybenzamide], a half-maximal effect (EC50) was put at 0.043 µM. With `Cc1ccc(Cl)c(C(=O)Nc2cccc3c2C(=O)N(C(C2CC2)C(C)(C)O)C3)c1F` (single isomer, unassigned) [Compound 111, (R or S)-6-chloro-N-(2-(1-cyclopropyl-2-hydroxy-2-methylpropyl)-3-oxoisoindolin-4-yl)-2-fluoro-3-methylbenzamide] the figure was 0.00026 µM; with `O=C(Nc1ccc(Cl)c2c1C(=O)N(CC1CC1)C2)c1ccnc2c1CCC2` [Compound 147, N-(7-chloro-2-(cyclopropylmethyl)-3-oxoisoindolin-4-yl)-6,7-dihydro-5H-cyclopenta[b]pyridine-4-carboxamide], 0.56 µM.

Compound `CC(C)(O)C(C1CC1)N1Cc2cccc(NC(=O)c3cccc4ncsc34)c2C1=O` (single isomer, unassigned) [Compound 131, (R or S)-N-(2-(1-cyclopropyl-2-hydroxy-2-methylpropyl)-3-oxoisoindolin-4-yl)benzo[d]thiazole-7-carboxamide] gave an EC50 of 0.045 µM. Next, `COC(C)(C)C(C1CC1)N1Cc2cccc(NC(=O)c3ccnc4c3CCC4)c2C1=O` (single isomer, unassigned) [Compound 165, (R or S)-N-(2-(1-cyclopropyl-2-methoxy-2-methylpropyl)-3-oxoisoindolin-4-yl)-6,7-dihydro-5H-cyclopenta[b]pyridine-4-carboxamide]: 0.2 µM; `C[C@@H](N1Cc2cccc(-c3ccccc3OCC(F)(F)F)c2C1=O)C(C)(C)O` [Compound 46, (R)-2-(3-hydroxy-3-methylbutan-2-yl)-7-(2-(2,2,2-trifluoroethoxy)phenyl) isoindolin-1-one]: 0.14 µM; `C[C@@H](N1Cc2cccc(NC(=O)c3c(C(F)(F)F)cnc4ccccc34)c2C1=O)C(C)(C)O` [Compound 127, (R)-N-(2-(3-hydroxy-3-methylbutan-2-yl)-3-oxoisoindolin-4-yl)-3-(trifluoromethyl)quinoline-4-carboxamide]: 0.038 µM. With `CN1Cc2cc(-c3cccc4c3C(=O)N([C@H](C3CC3)C(C)(C)O)C4)ccc2CC1=O` [Compound 74, (R)-7-(2-(1-cyclopropyl-2-hydroxy-2-methylpropyl)-3-oxoisoindolin-4-yl)-2-methyl-1,4-dihydroisoquinolin-3(2H)-one] the figure was 0.04 µM; with `O=C(Nc1ccc(O)c2c1C(=O)N(CC1CC1)C2)c1ccnc2c1CCC2` [Compound 149, N-(2-(Cyclopropylmethyl)-7-hydroxy-3-oxoisoindolin-4-yl)-6,7-dihydro-5H-cyclopenta[b]pyridine-4-carboxamide], 0.9 µM; with `Cc1nnc(-c2ccc(-c3cncc4c3C(=O)N(C(C3CC3)C(C)(C)O)C4)cc2)o1` (single isomer, unassigned) [Compound 31, (R or S)-2-(1-cyclopropyl-2-hydroxy-2-methylpropyl)-7-(4-(5-methyl-1,3,4-oxadiazol-2-yl)phenyl)-2,3-dihydro-1H-pyrrolo[3,4-c]pyridin-1-one], 0.18 µM. `CC(C)(O)C(C1CC1)N1Cc2cccc(NC(=O)c3c(F)ccc(F)c3Cl)c2C1=O` (single isomer, unassigned) [Compound 115, (R or S)-2-chloro-N-(2-(1-cyclopropyl-2-hydroxy-2-methylpropyl)-3-oxoisoindolin-4-yl)-3,6-difluorobenzamide]: the half-maximal effective concentration (EC50) worked out at 0.0015 µM. This EC50 is about 120-fold lower than that of the compound before. On to `CC(C)(O)C(C1CC1)N1Cc2ccc(F)c(-c3ccccc3OCC(F)(F)F)c2C1=O` (single isomer, unassigned) [Compound 21, 2-((R or S)-1-cyclopropyl-2-hydroxy-2-methylpropyl)-6-fluoro-7-(2-(2,2,2-trifluoroethoxy)phenyl) isoindolin-1-one], for which the 50% effective concentration (EC50) amounted to 0.00091 µM. `COc1cc(Cl)nc(-c2cccc3c2C(=O)N([C@H](C2CC2)C(C)(C)O)C3)c1` [Compound 93, (R)-7-(6-chloro-4-methoxypyridin-2-yl)-2-(1-cyclopropyl-2-hydroxy-2-methylpropyl)isoindolin-1-one] showed an EC50 of 0.055 µM. This EC50 is about 60-fold higher than that of the compound before. With `Cc1nnc(-c2ccc(-c3ccc(O)c4c3C(=O)N([C@H](C3CC3)C(C)(C)O)C4)cc2)o1` [Compound 58, (R)-2-(1-Cyclopropyl-2-hydroxy-2-methylpropyl)-4-hydroxy-7-(4-(5-methyl-1,3,4-oxadiazol-2-yl)phenyl)isoindolin-1-one] the figure was 0.028 µM; with `Cc1ccc(F)c(C(=O)Nc2cccc3c2C(=O)N(C(C2CC2)C(C)(C)O)C3)c1Cl` (single isomer, unassigned) [Compound 110, (R or S)-2-chloro-N-(2-(1-cyclopropyl-2-hydroxy-2-methylpropyl)-3-oxoisoindolin-4-yl)-6-fluoro-3-methylbenzamide], 0.00021 µM. Next, `Cc1cc2c(c(-c3ccc(-c4nnc(C)o4)cc3)c1)C(=O)N([C@H](C1CC1)C(C)(C)O)C2` [Compound 61, (R)-2-(1-Cyclopropyl-2-hydroxy-2-methylpropyl)-5-methyl-7-(4-(5-methyl-1,3,4-oxadiazol-2-yl)phenyl)isoindolin-1-one]: 0.0089 µM; `Cc1c(C(=O)Nc2cccc3c2C(=O)N(C(C2CC2)C(C)(C)O)C3)cccc1C(F)(F)F` (single isomer, unassigned) [Compound 120, (R or S)-N-(2-(1-cyclopropyl-2-hydroxy-2-methylpropyl)-3-oxoisoindolin-4-yl)-2-methyl-3-(trifluoromethyl)benzamide]: 0.01 µM.

Regarding `Cc1nnc(-c2ccc(-c3cc(F)cc4c3C(=O)N([C@H](C3CC3)C(C)(C)O)C4)c(F)c2)o1` [Compound 27, (R)-2-(1-cyclopropyl-2-hydroxy-2-methylpropyl)-5-fluoro-7-(2-fluoro-4-(5-methyl-1,3,4-oxadiazol-2-yl)phenyl)isoindolin-1-one], a half-maximal effect (EC50) was put at 0.0014 µM.

Compound `O=C(Nc1cccc2c1C(=O)N(C(C1CC1)C1CC1)C2)c1ccnc2[nH]ccc12` [Compound 141, N-(2-(dicyclopropylmethyl)-3-oxoisoindolin-4-yl)-1H-pyrrolo[2,3-b]pyridine-4-carboxamide] returned an EC50 of 0.14 µM.

`CCOc1ccccc1C(=O)Nc1cccc2c1C(=O)N(CC1CC3CCN1CC3)C2` (racemic) [Compound 108, 2-Ethoxy-N-(3-oxo-2-(quinuclidin-2-ylmethyl)isoindolin-4-yl)benzamide] displayed a concentration for a half-maximal effect (EC50) of 0.27 µM. This EC50 lies about 1.9-fold higher than the previous one. In turn, `Cc1nnc(-c2cccc(-c3cccc4c3C(=O)N([C@H](C3CC3)C(C)(C)O)C4)c2)o1` [Compound 13, (R)-2-(1-cyclopropyl-2-hydroxy-2-methylpropyl)-7-(3-(5-methyl-1,3,4-oxadiazol-2-yl)phenyl)isoindolin-1-one] came in with an EC50 of 0.26 µM. Compound `COc1cnc2cc(-c3cccc4c3C(=O)N([C@H](C3CC3)C(C)(C)O)C4)ccc2n1` [Compound 75, (R)-2-(1-cyclopropyl-2-hydroxy-2-methylpropyl)-7-(2-methoxyquinoxalin-6-yl)isoindolin-1-one] showed an EC50 of 0.0088 µM. The compound `O=C(Nc1cccc2c1C(=O)N(c1ccc(F)cc1)C2)OC1CN2CCC1CC2` (centres unmarked) [Compound 150, Quinuclidin-3-yl(2-(4-fluorophenyl)-3-oxoisoindolin-4-yl)carbamate] had an EC50 of 0.74 µM. Against the preceding compound, the EC50 is about 84-fold higher.
